From US20250152577A1, “Pharmaceutical Composition of Ethidium Bromide and Use in Treating Cancer” (RUIJIN HOSPITAL, SHANGHAI JIAOTONG UNIVERSITY SCHOOL OF …, priority 2022, published 2025)

Assays:
[1] = system: tumor tissue blocks (PDX) from patients with colorectal cancer; test: Subcutaneous patient colorectal cancer graft (PDX) in nude mice; format: in vivo
3T3-L1 = test: Median lethal dosage (IC50) against normal cell lines; format: cell-based; conditions: Mus musculus; 3T3-L1 normal cells
Nalm-6 Leukemia = test: Median lethal dosage (IC50) against tumor cell lines; format: cell-based; conditions: Homo sapiens; Nalm-6 leukemia tumor cells
HepG2 Liver cancer = test: as above; format: cell-based; conditions: Homo sapiens; HepG2 liver cancer tumor cells
Sk-Hep1 Liver cancer = test: as above; format: cell-based; conditions: Homo sapiens; Sk-Hep1 liver cancer tumor cells
MEF = test: Median lethal dosage (IC50) against normal cell lines; format: cell-based; conditions: Mus musculus; MEF normal cells
[2] = Tolerability of gavage oral administration in mice; format: in vivo; conditions: gavage oral 20 mg/Kg per day
MDA-231 Breast cancer = test: Median lethal dosage (IC50) against tumor cell lines; format: cell-based; conditions: Homo sapiens, MDA-MB-231; MDA-231 breast cancer tumor cells
B16 Melanoma = test: as above; format: cell-based; conditions: Mus musculus; B16 melanoma tumor cells
Hela Cervical cancer = test: as above; format: cell-based; conditions: Homo sapiens; Hela cervical cancer tumor cells
[3] = Toxicity of ethidium bromide: routine blood, liver and kidney functions; format: in vivo, nude mice; conditions: after 4 weeks of intravenous administration
Description: Finally, we also conducted a preliminary study on the toxicity of ethidium bromide by collecting whole blood and serum from the control and the dosing groups (administered intravenously for about 1 month) and tested their routine blood, and liver and kidney functions, respectively.

## CC[n+]1c(-c2ccccc2)c2cc(N)ccc2c2ccc(N)cc21 [ethidium bromide, Ethidium bromide]
[1]; 20 mg/Kg in PBS injected directly into the tumor, once a day, three injections
  subcutaneous tumor mass: rapidly necrotic and eventually died and fell off
[1]; intravenously administered
  anti-tumor effect: very limited
3T3-L1
  IC50: 67.9 µM
Nalm-6 Leukemia
  IC50: 1.17 µM
HepG2 Liver cancer
  IC50: 8.12 µM
Sk-Hep1 Liver cancer
  IC50: 1.26 µM
MEF
  IC50: 38.5 µM
[2]
  tolerability: well tolerated
MDA-231 Breast cancer
  IC50: 5.4 µM
B16 Melanoma
  IC50: 11.2 µM
Hela Cervical cancer
  IC50: 3.35 µM
[3]; serum
  liver or kidney function vs control: no significant difference in liver or kidney function
[3]; whole blood
  blood routine data (hemoglobin, platelets, leukocytes): very normal
